Experimental data from the NIST ThermoML archive (doi:10.1016/j.fluid.2014.11.024).
± gives the expanded uncertainty stated by the source.

Conditions: 101.33 kPa, Liquid; for viscosity: Falling or rolling sphere viscometry; for speed of sound: Sing-around technique in a fixed-path interferometer; for mass density: Vibrating tube method

| Structure (SMILES) | viscosity (293.15 K) [mPa·s] | speed of sound (293.15 K) [m/s] | mass density (293.15 K) [kg/m3] | viscosity (298.15 K) [mPa·s] | speed of sound (298.15 K) [m/s] | mass density (298.15 K) [kg/m3] | viscosity (303.15 K) [mPa·s] | speed of sound (303.15 K) [m/s] | mass density (303.15 K) [kg/m3] | viscosity (308.15 K) [mPa·s] | speed of sound (308.15 K) [m/s] | mass density (308.15 K) [kg/m3] | viscosity (313.15 K) [mPa·s] | speed of sound (313.15 K) [m/s] | mass density (313.15 K) [kg/m3] | viscosity (318.15 K) [mPa·s] | speed of sound (318.15 K) [m/s] | mass density (318.15 K) [kg/m3] | viscosity (323.15 K) [mPa·s] | speed of sound (323.15 K) [m/s] | further results |
| --- | --- | --- | --- | --- | --- | --- | --- | --- | --- | --- | --- | --- | --- | --- | --- | --- | --- | --- | --- | --- | --- |
| CCCC(=O)[O-].C[NH+]1CCCC1=O [N-methyl-2-oxopyrrolidinium butanoate] | 3.996 ± 0.051 | 1435.6 ± 2.3 | 1010.56 ± 0.86 | 3.526 ± 0.045 | 1418 ± 2.3 | 1006.11 ± 0.85 | 3.136 ± 0.04 | 1400.1 ± 2.3 | 1001.65 ± 0.84 | 2.809 ± 0.036 | 1382.2 ± 2.3 | 997.18 ± 0.83 | 2.531 ± 0.033 | 1364.4 ± 2.3 | 992.71 ± 0.83 | 2.295 ± 0.03 | 1346.7 ± 2.3 | 988.24 ± 0.82 | 2.093 ± 0.028 | 1328.5 ± 2.3 | mass density (323.15 K): 983.74 ± 0.82 kg/m3; viscosity (328.15 K): 1.918 ± 0.026 mPa·s; speed of sound (328.15 K): 1311 ± 2.3 m/s; mass density (328.15 K): 979.25 ± 0.81 kg/m3; viscosity (333.15 K): 1.771 ± 0.024 mPa·s; speed of sound (333.15 K): 1293.5 ± 2.3 m/s; mass density (333.15 K): 974.76 ± 0.81 kg/m3; viscosity (338.15 K): 1.639 ± 0.022 mPa·s; speed of sound (338.15 K): 1276.3 ± 2.3 m/s; mass density (338.15 K): 970.26 ± 0.8 kg/m3; viscosity (343.15 K): 1.527 ± 0.021 mPa·s; speed of sound (343.15 K): 1259.1 ± 2.3 m/s; mass density (343.15 K): 965.75 ± 0.8 kg/m3 |
| CCC(=O)[O-].C[NH+]1CCCC1=O [N-methyl-2-oxopyrrolidinium propionate] | 3.136 ± 0.04 | 1460.3 ± 2.3 | 1032.46 ± 0.9 | 2.801 ± 0.036 | 1442.6 ± 2.3 | 1027.86 ± 0.89 | 2.518 ± 0.032 | 1424.5 ± 2.3 | 1023.32 ± 0.89 | 2.28 ± 0.03 | 1406.4 ± 2.3 | 1018.74 ± 0.88 | 2.075 ± 0.027 | 1388.4 ± 2.3 | 1014.16 ± 0.87 | 1.9 ± 0.025 | 1370.6 ± 2.3 | 1009.56 ± 0.86 | 1.75 ± 0.024 | 1352.8 ± 2.3 | mass density (323.15 K): 1004.97 ± 0.85 kg/m3; viscosity (328.15 K): 1.619 ± 0.022 mPa·s; speed of sound (328.15 K): 1335.1 ± 2.3 m/s; mass density (328.15 K): 1000.36 ± 0.84 kg/m3; viscosity (333.15 K): 1.506 ± 0.021 mPa·s; speed of sound (333.15 K): 1317.5 ± 2.3 m/s; mass density (333.15 K): 995.75 ± 0.83 kg/m3; viscosity (338.15 K): 1.407 ± 0.02 mPa·s; speed of sound (338.15 K): 1300 ± 2.3 m/s; mass density (338.15 K): 991.12 ± 0.83 kg/m3; viscosity (343.15 K): 1.32 ± 0.019 mPa·s; speed of sound (343.15 K): 1282.6 ± 2.3 m/s; mass density (343.15 K): 986.49 ± 0.82 kg/m3 |
| C[NH+]1CCCC1=O.O=C[O-] [N-methyl-2-oxopyrrolidinium formate] | 2.451 ± 0.032 | 1496 ± 2.3 | 1076.38 ± 1 | 2.217 ± 0.029 | 1478.3 ± 2.3 | 1071.66 ± 0.99 | 2.02 ± 0.027 | 1460.4 ± 2.3 | 1066.93 ± 0.98 | 1.85 ± 0.025 | 1442.5 ± 2.3 | 1062.2 ± 0.97 | 1.705 ± 0.023 | 1424.8 ± 2.3 | 1057.45 ± 0.96 | 1.58 ± 0.022 | 1407.2 ± 2.3 | 1052.71 ± 0.95 | 1.472 ± 0.021 | 1389.7 ± 2.3 | mass density (323.15 K): 1047.96 ± 0.94 kg/m3; viscosity (328.15 K): 1.377 ± 0.02 mPa·s; speed of sound (328.15 K): 1372.2 ± 2.3 m/s; mass density (328.15 K): 1043.2 ± 0.93 kg/m3; viscosity (333.15 K): 1.295 ± 0.019 mPa·s; speed of sound (333.15 K): 1354.8 ± 2.3 m/s; mass density (333.15 K): 1038.43 ± 0.92 kg/m3; viscosity (338.15 K): 1.223 ± 0.018 mPa·s; speed of sound (338.15 K): 1337.6 ± 2.3 m/s; mass density (338.15 K): 1033.66 ± 0.91 kg/m3; viscosity (343.15 K): 1.159 ± 0.017 mPa·s; speed of sound (343.15 K): 1320.5 ± 2.3 m/s; mass density (343.15 K): 1028.88 ± 0.9 kg/m3 |
